Source: US20260174707A1, “USE OF GNRH ANTAGONIST IN REGULATION AND CONTROL OF ESTRUS OF MAMMAL” (priority 2022, published 2026)
Marks after values point to notes of the source that are not given here. Where a SMILES comes first, the peptide text is derived from it. [ ]: non-standard residue; d: D form. The star is where a group is joined. dPhe(4-NHCONH2) = NC(=O)Nc1ccc(C[C@@H](N)C(=O)O)cc1; Dihydroorotyl(S) = O=C1C[C@@H](C(=O)*)NC(=O)N1; dPhe(4-Cl) = N[C@H](Cc1ccc(Cl)cc1)C(=O)O; Phe(4-NH2) = Nc1ccc(C[C@H](N)C(=O)O)cc1; d2Nal = N[C@H](Cc1ccc2ccccc2c1)C(=O)O; Lys(iPr) = CC(C)NCCCC[C@H](N)C(=O)O; d3Pal = N[C@H](Cc1cccnc1)C(=O)O

Legend:
Assay type in all cases: in vivo
[1] = system: gilts; assay: Oestrus synchronization of gilts (inhibitor, then PMSG); settings: 1,000 units PMSG im on 20th day
Description: Comparison of experiments of administering Degarelix and altrenogest in achieving oestrus synchronization in gilts was performed. Twelve healthy adult gilts were selected and divided into two groups, namely an altrenogest group and a Degarelix group, with 6 gilts in each group. Among them, gilts in the altrenogest group were fed 20 mg of altrenogest every day for 18 consecutive days, while gilts in the Degarelix group were intramuscularly injected with 15 μg/kg body weight of Degarelix only on the first day. Both groups of gilts were intramuscularly injected with 1,000 units of PMSG on the 20th day after the first administration, then test whether the gilts in different treatment groups can achieve the estrus synchronization.

[2] = system: sowpigs; assay: Oestrus inhibition in sowpigs (oestrus performance observed); settings: intramuscular injection once
Description: Thirty healthy adult sowpigs were selected and divided into a control group and Degarelix experimental groups, with 6 sowpigs in each group. The four Degarelix experimental groups were intramuscularly injected with different doses of Degarelix, namely 10 μg/kg body weight, 20 μg/kg body weight, 40 μg/kg body weight and 160 μg/kg body weight, respectively. The control group was intramuscularly injected with normal saline, and the oestrus performance (e.g., vulva performance and static reaction) of the sowpigs was observed and recorded to determine whether the sowpigs were in oestrus, and the time to restore oestrus after administration was recorded.

[3] = system: male dogs; assay: Inhibiting effect on male dogs (serum testosterone, scrotum circumference, sexual behavior); settings: 1.5 mg/kg subcutaneous
Description: Adult healthy male dogs with normal reproductive capacity were selected and divided into an experimental group and a control group. Each group of the animals was treated with subcutaneous injections, male dogs in the control group were injected with normal saline, and male dogs in the experimental group were injected with 1.5 mg/kg body weight of Degarelix, the treated animals in each group were fed and observed in the same way. Blood was collected from the animals regularly to measure and record the concentration of testosterone in serum (blood was collected and detected before the injection of drugs, and 1 h, 2 h, 4 h, 6 h, 8 h, 24 h, 48 h, 72h, 120 h and 168 h after the injection of drugs, and after that, the blood was collected every 168 h (1 week) until the end of the experiment), and scrotum circumference of male animals was measured and recorded regularly, sexual behavior of the male animals was observed and recorded, and compared with that of male animals in the control group.

[4] = system: female dogs; assay: Inhibiting effect on female dogs in proestrus; settings: 1.5 mg/kg subcutaneous
Description: Healthy female dogs in proestrus (the proestrus period was less than 3 days) were selected and divided into an experimental group and a control group. Each group of the animals was treated with subcutaneous injections, the female dogs in control group were injected with normal saline, and the female dogs in experimental group were injected with 1.5 mg/kg body weight of Degarelix, each group of the treated animals was fed and observed in the same way to detect the oestrus of the female dogs.

[5] = system: female mice; assay: Oestrus synchronization of female mice (Degarelix, then PMSG and HCG); settings: 1.0 mg/kg sc; 5 units PMSG ip on 14th day; 5 units HCG ip after 46 hours
Description: It was discovered from the oestrus inhibition experiments that a dose of 1.0 mg/kg can inhibit oestrus of female mice for at least 15 days. Six 6-week-old female mice were selected for further oestrus synchronization experiments. The specific method was as follows: the female mice were subcutaneously injected 1.0 mg/kg of Degarelix, and intraperitoneally injected 5 units of PMSG on the 14th day after administration, and intraperitoneally injected 5 units of HCG after 46 hours, and then the oestrus of the female mice was detected.

[6] = system: female mice; assay: Oestrus inhibition in female mice (daily vaginal smear); settings: only subcutaneous injection once
Description: Twenty-four 6-week-old female mice were selected and divided into 4 groups, with 6 mice in each group. The female mice in the negative control group were subcutaneously injected with normal saline, the female mice in the Abarelix group were subcutaneously injected with a dosage of 2 mg/kg/day for 8 consecutive days, the female mice in the Cetrorelix group were subcutaneously injected with a dosage of 2 mg/kg/day for 8 consecutive days, and the female mice in the Degarelix group were subcutaneously injected once with a dose of 2 mg/kg. After administration, vaginal smear experiments were performed on female mice every day to detect the stage of the oestrus cycle of female mice in each group. […] Thirty-two 6-week-old female mice were selected and divided into 4 groups, with 8 mice in each group. The female mice in the negative control group were subcutaneously injected with normal saline, and the female mice in the three Degarelix groups were subcutaneously injected with different dosages (0.4 mg/kg, 0.6 mg/kg and 1.0 mg/kg) of Degarelix once. After administration, vaginal smear experiments were performed on female mice every day to detect the oestrous condition.

[7] = gilts, 15 μg/kg im only on first day
[8] = gilts fed 20 mg every day for 18 days

Row | Compound | Days after PMSG injection on which gilts were in oestrus [1, 7] | Number of days over which gilts were concentrated in oestrus [1, 7] [days] | Oestrus of all gilts after administration of exogenous hormones [1, 7] | Time to restore oestrus after administration ([2]; 10 μg/kg) | Time to restore oestrus after administration ([2]; 20 μg/kg) | Time to restore oestrus after administration ([2]; 40 μg/kg) | Sexual behaviour [3] | Scrotal circumference ([3]; after a period of treatment) | Erection and semen collection ([3]; after treatment) | Testosterone concentration in serum ([3]; compared to control group) | Oestrus stage by vaginal smear [4] | Oestrus symptoms (vulvar redness and swelling, vaginal discharge of mucus) [4] | Days on which female mice were concentrated in oestrus [5] | Time of inhibiting oestrus ([6]; low dose 0.4 mg/kg) | Time of inhibiting oestrus ([6]; middle dose 0.6 mg/kg) | Days after PMSG injection on which gilts were in oestrus [1, 8] | Number of days over which gilts were concentrated in oestrus [1, 8] [days] | Oestrus of all gilts after administration of exogenous hormones [1, 8]
1 | CC(=O)N[C@H](Cc1ccc2ccccc2c1)C(=O)N[C@H](Cc1ccc(Cl)cc1)C(=O)N[C@H](Cc1cccnc1)C(=O)N[C@@H](CO)C(=O)N[C@@H](Cc1ccc(NC(=O)[C@@H]2CC(=O)NC(=O)N2)cc1)C(=O)N[C@H](Cc1ccc(NC(N)=O)cc1)C(=O)N[C@@H](CC(C)C)C(=O)N[C@@H](CCCCNC(C)C)C(=O)N1CCC[C@H]1C(=O)N[C@H](C)C(N)=O [Degarelix] (Ac-[d2Nal][dPhe(4-Cl)][d3Pal]S[Phe(4-NH2)](Dihydroorotyl(S))[dPhe(4-NHCONH2)]L[Lys(iPr)]P[dA]-NH2) | 3rd to the 5th day | 3 | in oestrus within one week | 21.50 ± 2.45^b days | 38.83 ± 2.37^c days | 53.83 ± 3.16^d days | significantly reduced | significantly reduced | abnormal erections and no semen could be collected | decreased significantly | quickly changed from proestrus to diestrus | gradually disappeared 3 days after the injection | 17th and 18th days | 7.13 ± 2.09^b days | 8.50 ± 3.54^bc days | – | – | –
2 | C=CC[C@]1(O)CC[C@H]2[C@@H]3CCC4=CC(=O)CCC4=C3C=C[C@@]21C [altrenogest] | – | – | – | – | – | – | – | – | – | – | – | – | – | – | – | 3rd day to the 6th day | 4 | in oestrus within one week
